The values below come from patent US11293911B2, “Multi-phase liquid composition, device for measuring permeability of drugs, and method for measuring permeability of drugs” (priority 2017, dated 2022).

Data set [1] in a line: in vitro. The class given is in vitro ADME. The note with it: for Papp: not told, read-out: Permeability according to examples. On the procedure: A DOPC lipid dissolved in chloroform and commercially available was collected in a glass vial, and chloroform was removed by blowing nitrogen.
The lipid film was left in the glass vial, to which the organic phase (1:1 (v/v) mixture of squalane and silicone oil (AR20)) was added, and then sonication was performed for 10-15 minutes to uniformly disperse the lipid in the oil.
Finally, an oil solution in which the lipid was dissolved (DOPC concentration: 4 mg/ml) was obtained.
Then, distilled water was added to a UV cuvette and the prepared lipid solution was added thereon.
At this time, the process of producing the lipid bilayer was performed by adding a small amount of fluorescently labeled lipid and observing it through a fluorescence microscope.
At this time, a magnetic stirring bar is placed under the UV cuvette and the lower water layer is continuously stirred during the measurement. This makes it unnecessary to consider the time when the drug passes through the lipid bilayer and diffuses to the area irradiated with UV.
The R2 value was calculated in order to determine how well the concentration and absorbance correlate at each wavelength, and the wavelength at which this value exceeds 0.99 was irradiated in the experiment.
More specifically, in FIG. 3, CA(t) means the concentration of an acceptor solution over time (where the first aqueous phase is located under the cuvette, where the drug reaches through the first lipid bilayer) and Ceq means the equilibrium concentration of the acceptor solution droplet (serving as a donor solution to provide a drug), and the acceptor solution, and is calculated by the following General Formula 1. Ceq=CD(0)VD/(VD+VA) [General Formula 1]
In General Formula 1, VA and VD are respectively the volume of a first aqueous phase (acceptor) and the volume of a second aqueous phase (donor, droplet), and CD(0) represents the drug concentration of the initial aqueous solution droplet.

Data set [2] is described as follows: in vitro. Particulars: PAMPA. (In general: In PAMPA a lipid-coated filter parts donor from acceptor wells.)
Description: Subsequently, the drug concentration of the portion corresponding to the cell membrane inside (acceptor) is obtained by HPLC or UV spectroscopy, from which the membrane permeability of the corresponding drugs is calculated.
The mark [3] stands for this setting: DOPC lipid bilayer, organic phase 1:1 (v/v) squalane and silicone oil (AR20), 1 μl donor droplet, real-time UV absorbance of stirred acceptor water layer.

Where two headings read alike, the source gives them in different places.

Take `Cc1cc(=O)n(-c2ccccc2)n1C` [Antipyrine]: in data set [1], the Papp worked out at 200 ×10⁻⁶ cm/s.
As to `CN/C(=N/CCSCc1nc[nH]c1C)NC#N` [Cimetidine], the “Permeability to the lipid bilayer (in words)” value in data set [1] (DOPC lipid bilayer, method of the example) is on record as “very low permeability”. In data set [1] (setting [3]), the Papp was determined as 7.2 ×10⁻⁶ cm/s.
With `Cn1c(=O)c2c(ncn2C)n(C)c1=O` [Caffeine], in data set [1] (setting [3]), the Papp was found to be 248 ×10⁻⁶ cm/s.
Turning to `CC(=O)Nc1ccc(O)cc1` [Acetaminophen], the Papp in data set [2] is 3.5 ×10⁻⁶ cm/s; in data set [1] (setting [3]), 113 ×10⁻⁶ cm/s.
